The values that follow come from patent US7300946B2, “N-(substituted arylmethyl)-4-(disubstituted methyl) piperidines and pyridines” (Bayer CropScience AG, priority 2002, dated 2007).

The test deals with tobacco budworm (Heliothis virescens [Fabricius]). The test is described as follows: surface-treated diet test against the tobacco budworm. Type of test: in vivo. To be noted: tobacco budworm second instar larvae, 0.25 millimoles of candidate insecticide on the surface of the diet, five-day exposure; for Percent Mortality: compared to total number of insects infested; for Percent Growth Inhibition: inhibition of insect weight relative to untreated controls. In outline:
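Wheat germ artificial diet surface-treated with 40 µL of 50 mM DMSO stock diluted 1:7 in 1:1 water/acetone (0.25 millimolar on diet), or sub-multiples for rate tests. One second-instar larva per well, 25° C, 60% RH, 5 days; percent weight inhibition vs DMSO controls and percent mortality.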

SMILES strings stand for the structures.

In the case of `CCON=Cc1ccc(CN2CCC(C(OC(=O)Nc3cc(F)cc(F)c3)c3ccc(Cl)cc3Cl)CC2)cc1` (stereo not shown) [Compound 531], for the setting “surface-treated diet”, the “Percent Mortality” value amounted to 100% and the “Percent Growth Inhibition” value was 100%.
Take `[O-][N+]1(Cc2ccc(Oc3ccccn3)cc2)CCC(C(Oc2ccc(C(F)(F)F)cn2)c2ccc(C(F)(F)F)cc2)CC1` (stereo not shown) [Compound 442]: under “surface-treated diet”, the “Percent Mortality” value is 100% and the “Percent Growth Inhibition” value is given as 100%.
As to `Cn1nnc(-c2ccc(C[N+]3([O-])CCC(=C(c4ccc(C(F)(F)F)cc4)c4ccc(C(F)(F)F)cc4)CC3)cc2)n1` (stereo not shown) [Compound 112], where the note is “surface-treated diet”, the “Percent Mortality” value turned out to be 100% and the “Percent Growth Inhibition” value was determined as 100%.
As for `CCON=Cc1ccc(CN2CCC(C(OC(=O)Nc3c(F)cccc3F)c3ccc(C(F)(F)F)cc3)CC2)cc1` (stereo not shown) [Compound 199], under “surface-treated diet”, the “Percent Mortality” value is 100% and the “Percent Growth Inhibition” value is recorded as 100%.
In the case of `O=C(Nc1cc(Cl)ccc1Cl)OC(c1ccc(C(F)(F)F)cc1)C1CCN(Cc2ccc(Oc3ccccn3)cc2)CC1` (stereo not shown) [Compound 231], under “surface-treated diet”, the “Percent Mortality” value was 100% and the “Percent Growth Inhibition” value is 100%.
With `[O-][N+]1(Cc2ccc(Oc3ncccn3)cc2)CCC(=C(c2ccc(C(F)(F)F)cc2)c2cccc(Cl)c2)CC1` (stereo not shown) [Compound 846], the “Percent Mortality” value was found to be 100% and the “Percent Growth Inhibition” value is 100%.
Consider `Cn1nnc(-c2ccc(CN3CCC(C(NC(=O)c4ccccc4F)c4ccc(OC(F)(F)F)cc4)CC3)cc2)n1` (stereo not shown) [Compound 326], for which, where the note is “surface-treated diet”, the “Percent Mortality” value is on record as 0% and the “Percent Growth Inhibition” value is recorded as 93%.
For the molecule `COc1ccc(CN2CCC(C(OC(=O)Nc3ccc(F)cc3)c3ccc(OC(F)(F)F)cc3)CC2)cc1` (stereo not shown) [Compound 468], where the note is “surface-treated diet”, the “Percent Mortality” value was found to be 33% and the “Percent Growth Inhibition” value is 100%.
In the case of `CC=CCOC(=O)Nc1ccc(C[N+]2([O-])CCC(=C(c3ccc(C(F)(F)F)cc3)c3ccc(C(F)(F)F)cc3)CC2)cc1` (stereo not shown) [Compound 837], the “Percent Mortality” value was found to be 100% and the “Percent Growth Inhibition” value worked out at 100%.
In the case of `Cn1nnc(-c2ccc(CN3CCC(C(NC(=O)Nc4ccc(I)cc4)c4ccc(OC(F)(F)F)cc4)CC3)cc2)n1` (stereo not shown) [Compound 341], under “surface-treated diet”, the “Percent Mortality” value was found to be 100% and the “Percent Growth Inhibition” value amounted to 100%.
As for `O=C(Nc1cc(F)cc(F)c1)OC(c1ccc(C(F)(F)F)cc1)C1CC[N+]([O-])(Cc2ccc(Oc3c(F)cccc3F)cc2)CC1` (stereo not shown) [Compound 751], the “Percent Mortality” value was found to be 100% and the “Percent Growth Inhibition” value is on record as 100%.
Take `O=C(Nc1cc(F)cc(F)c1)OC(c1ccc(Cl)cc1Cl)C1CCN(Cc2ccc(Oc3ncccn3)cc2)CC1` (stereo not shown) [Compound 720]: the “Percent Mortality” value is recorded as 100% and the “Percent Growth Inhibition” value is 100%.
Regarding `O=C(Nc1cccc(C(F)(F)F)c1)OC(c1ccc(Cl)cc1)C1CCN(Cc2ccc(Oc3ccccn3)cc2)CC1` (stereo not shown) [Compound 634], under “surface-treated diet”, the “Percent Mortality” value was determined as 100% and the “Percent Growth Inhibition” value worked out at 100%.
For the molecule `CCn1nnc(-c2ccc(CN3CCC(C(OCc4ccc(C(F)(F)F)cc4)c4ccc(OC(F)(F)F)cc4)CC3)cc2)n1` (stereo not shown) [Compound 304], where the note is “surface-treated diet”, the “Percent Mortality” value worked out at 100% and the “Percent Growth Inhibition” value worked out at 95%.
As for `O=C(Nc1cc(F)cc(F)c1)OC(c1ccc(C(F)(F)F)cc1)C1CCN(Cc2ccc(-c3ccccn3)cc2)CC1` (stereo not shown) [Compound 628], under “surface-treated diet”, the “Percent Mortality” value was 100% and the “Percent Growth Inhibition” value amounted to 100%.
Consider `Cn1nnc(-c2ccc(CN3CCC(C(NCc4ccc(I)cc4)c4ccc(OC(F)(F)F)cc4)CC3)cc2)n1` (stereo not shown) [Compound 316], for which, for the setting “surface-treated diet”, the “Percent Mortality” value is 50% and the “Percent Growth Inhibition” value is on record as 100%.
Turning to `O=C(Nc1cc(F)cc(F)c1)OC(c1ccc(C(F)(F)F)cc1)C1CCN(Cc2ccc(Oc3ccc(C(F)(F)F)cn3)cc2)CC1` (stereo not shown) [Compound 691], under “surface-treated diet”, the “Percent Mortality” value is on record as 100% and the “Percent Growth Inhibition” value is recorded as 100%.
For `CC(C)OC(=O)Nc1ccc(COC(c2ccc(C(F)(F)F)cc2)C2CCN(Cc3ccc(NC(=O)OC(C)C)cc3)CC2)cc1` (stereo not shown) [Compound 457], under “surface-treated diet”, the “Percent Mortality” value is 0% and the “Percent Growth Inhibition” value is given as 16%.
In the case of `C#CCOC(=O)Nc1ccc(C[N+]2([O-])CCC(=C(c3ccc(C(F)(F)F)cc3)c3ccc(C(F)(F)F)cc3)CC2)cc1` (stereo not shown) [Compound 838], the “Percent Mortality” value came out at 100% and the “Percent Growth Inhibition” value is listed as 100%.
Regarding `O=C(Nc1cc(F)cc(F)c1)OC(c1ccc(C(F)(F)F)cc1)C1CCN(Cc2ccc(-c3ccccc3)cc2)CC1` (stereo not shown) [Compound 544], for the setting “surface-treated diet”, the “Percent Mortality” value is 100% and the “Percent Growth Inhibition” value is listed as 100%.
On to `FC(F)(F)c1ccc(C(=C2CCN(Cc3ccc(Oc4cnccn4)cc3)CC2)c2ccc(C(F)(F)F)cc2)cc1` [Compound 825], for which the “Percent Mortality” value was 83% and the “Percent Growth Inhibition” value came to 100%.
`CCCOc1ccc(CN2CCC(C(OC(=O)Nc3cccc(C(F)(F)F)c3)c3cccc(C(F)(F)F)c3)CC2)cc1` (stereo not shown) [Compound 488]: for the setting “surface-treated diet”, the “Percent Mortality” value stood at 100% and the “Percent Growth Inhibition” value is recorded as 100%.
On to `Cn1nnc(-c2ccc(CN3CCC(C(NC(=O)Nc4ccc(Br)cc4)c4ccc(OC(F)(F)F)cc4)CC3)cc2)n1` (stereo not shown) [Compound 337], for which, for the setting “surface-treated diet”, the “Percent Mortality” value turned out to be 100% and the “Percent Growth Inhibition” value was found to be 100%.
As to `O=C(Nc1cc(F)cc(F)c1)OC(c1ccc(C(F)(F)F)cc1)C1CCN(Cc2ccc(Oc3ncc(Cl)cc3Cl)cc2)CC1` (stereo not shown) [Compound 686], under “surface-treated diet”, the “Percent Mortality” value is 17% and the “Percent Growth Inhibition” value was determined as 98%.
`Cn1nnc(-c2ccc(CN3CCC(C(OC(=O)Nc4ccc(Cl)cc4)c4ccc(Cl)cc4)CC3)cc2)n1` (stereo not shown) [Compound 264]: under “surface-treated diet”, the “Percent Mortality” value is listed as 100% and the “Percent Growth Inhibition” value worked out at 100%.
For `O=C(Nc1ccc(F)cc1)OC(c1ccc(C(F)(F)F)cc1)C1CCN(Cc2ccc(Oc3ccccn3)cc2)CC1` (stereo not shown) [Compound 675], under “surface-treated diet”, the “Percent Mortality” value came to 100% and the “Percent Growth Inhibition” value amounted to 100%.
With `FC(F)(F)c1ccc(C(=C2CCN(Cc3ccc(Oc4ccccc4)nc3)CC2)c2ccc(C(F)(F)F)cc2)cc1` [Compound 858], the “Percent Mortality” value is listed as 17% and the “Percent Growth Inhibition” value stood at 99%.
Regarding `O=C(Nc1cc(F)cc(F)c1)OC(c1ccc(C(F)(F)F)cc1)C1CCN(Cc2ccc(Oc3cccc(Cl)n3)cc2)CC1` (stereo not shown) [Compound 685], under “surface-treated diet”, the “Percent Mortality” value is 100% and the “Percent Growth Inhibition” value is 100%.
For the molecule `CCN(CC)S(=O)(=O)c1ccc(CN2CCC(C(OC(=O)Nc3cc(F)cc(F)c3)c3ccc(C(F)(F)F)cc3)CC2)cc1` (stereo not shown) [Compound 541], where the note is “surface-treated diet”, the “Percent Mortality” value is 0% and the “Percent Growth Inhibition” value was determined as 59%.
For `O=C(Nc1cc(F)cc(F)c1)OC(c1ccc(F)cc1)C1CCN(Cc2ccc(Oc3ncccn3)cc2)CC1` (stereo not shown) [Compound 717], the “Percent Mortality” value stood at 100% and the “Percent Growth Inhibition” value is reported as 100%.
Consider `CC(C)OC(=O)Nc1ccc(CN2CCC(C(OC(=O)Nc3cc(F)cc(F)c3)c3ccc(Cl)cc3Cl)CC2)cc1` (stereo not shown) [Compound 507], for which, under “surface-treated diet”, the “Percent Mortality” value was 100% and the “Percent Growth Inhibition” value stood at 100%.
In the case of `CCON=Cc1ccc(CN2CCC(C(OC(=O)Nc3cc(F)cc(F)c3)c3ccc(C(F)(F)F)cc3)CC2)cc1` (stereo not shown) [Compound 200], under “surface-treated diet”, the “Percent Mortality” value worked out at 100% and the “Percent Growth Inhibition” value stood at 100%.
